Structures are written as SMILES. Where only a bound is given, the exact number is not on record here.

The target of the assay is T1, Human PIP4K2C (Homo sapiens, UniProt Q8TBX8).
T1 construct: purchased Eurofins DiscoverX 87-0007-1094
T1 sequence (Q8TBX8 1-421): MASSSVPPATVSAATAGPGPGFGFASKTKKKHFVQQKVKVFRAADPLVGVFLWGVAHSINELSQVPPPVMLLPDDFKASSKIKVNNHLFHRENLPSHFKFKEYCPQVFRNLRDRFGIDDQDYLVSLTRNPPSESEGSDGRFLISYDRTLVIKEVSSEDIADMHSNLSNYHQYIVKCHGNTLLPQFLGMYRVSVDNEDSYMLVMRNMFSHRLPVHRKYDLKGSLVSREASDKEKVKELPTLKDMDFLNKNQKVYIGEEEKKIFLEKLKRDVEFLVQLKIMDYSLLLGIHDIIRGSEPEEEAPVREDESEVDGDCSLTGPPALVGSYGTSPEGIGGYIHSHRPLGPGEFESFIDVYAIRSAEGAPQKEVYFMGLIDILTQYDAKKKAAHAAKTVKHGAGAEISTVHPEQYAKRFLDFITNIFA
Kind of assay: Enzyme binding assay (KINOMEscan), active site-directed competition binding. To be noted: 11-point dose response, duplicate, top concentration 5 micromolar; read-out: Pip4k2c Kd: IC50. The gist of the method: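 Active site-directed competition against immobilized ligand. 11-point dose response in duplicate, top concentration 5 micromolar; IC50 from Hill fit by Levenberg-Marquardt.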
With `Cc1ccccc1-c1nc(Nc2cncc(N3CCCC3=O)c2)ncc1Cl` [Compound 116, 1-(5-((5-chloro-4-(o-tolyl)pyrimidin-2-yl)amino)pyridin-3-yl)pyrrolidin-2-one], the half-maximal inhibitory concentration (IC50) – broadly, the concentration at which inhibition is half-maximal – was less than 500 nM.
Take `O=C1CCCN1c1cncc(Nc2cc(-c3ccccc3)c(Cl)cn2)c1` [Compound 117, 1-(5-((5-chloro-4-phenylpyridin-2-yl)amino)pyridin-3-yl)pyrrolidin-2-one]: the half-maximal inhibitory concentration (IC50) is less than 500 nM.
Regarding `O=C1CCCN1c1cncc(Nc2ncc(Cl)c(-c3ccc(F)cc3)n2)c1` [Compound 118, 1-(5-((5-chloro-4-(4-fluorophenyl)pyrimidin-2-yl)amino)pyridin-3-yl)pyrrolidin-2-one], the IC50 is less than 500 nM.
Turning to `O=C1CCCN1c1cncc(Nc2ncc(Cl)c(N3CCCCC3C(F)(F)F)n2)c1` (stereo not drawn) [Compound 119, 1-(5-((5-chloro-4-(2-(trifluoromethyl)piperidin-1-yl)pyrimidin-2-yl)amino)pyridin-3-yl)pyrrolidin-2-one], the half-maximal inhibitory concentration (IC50) was less than 500 nM.
With `O=C1CCCN1c1cncc(Nc2ncc(Cl)c(N3CCC(c4ccccn4)C3)n2)c1` (stereo not drawn) [Compound 120, 1-(5-((5-chloro-4-(3-(pyridin-2-yl)pyrrolidin-1-yl)pyrimidin-2-yl)amino)pyridin-3-yl)pyrrolidin-2-one], the half-inhibitory concentration (IC50) was less than 500 nM.
Consider `O=C1CCCN1c1cncc(Nc2ncc(Cl)c(N3CCC(N4CCCCC4)C3)n2)c1` (stereo not drawn) [Compound 121, 1-(5-((5-chloro-4-(3-(piperidin-1-yl)pyrrolidin-1-yl)pyrimidin-2-yl)amino)pyridin-3-yl)pyrrolidin-2-one], for which the half-inhibitory concentration (IC50) was less than 500 nM.
In the case of `O=C1CCCN1c1cncc(Nc2ncc(Cl)c(-c3cccc(N4CCC4)c3)n2)c1` [Compound 122, 1-(5-((4-(3-(azetidin-1-yl)phenyl)-5-chloropyrimidin-2-yl)amino)pyridin-3-yl)pyrrolidin-2-one], the IC50 was less than 500 nM.
As for `O=C1CCCN1c1cncc(Nc2ncc(Cl)c(N3CCCC(C4CCC4)C3)n2)c1` (stereo not drawn) [Compound 123, 1-(5-((5-chloro-4-(3-cyclobutylpiperidin-1-yl)pyrimidin-2-yl)amino)pyridin-3-yl)pyrrolidin-2-one], the figure is less than 500 nM; as for `O=C1CCCN1c1cncc(Nc2ncc(Cl)c(N3CCCC(C4CC4)C3)n2)c1` (stereo not drawn) [Compound 126, 1-(5-((5-chloro-4-(3-cyclopropylpiperidin-1-yl)pyrimidin-2-yl)amino)pyridin-3-yl)pyrrolidin-2-one], less than 500 nM; as for `O=C1CCCN1c1cncc(Nc2ncc(Cl)c(N3CCCc4ccccc43)n2)c1` [Compound 127, 1-(5-((5-chloro-4-(3,4-dihydroquinolin-1(2H)-yl)pyrimidin-2-yl)amino)pyridin-3-yl)pyrrolidin-2-one], less than 500 nM.
With `O=C1CCCN1c1cncc(Nc2ncc(Cl)c(N3CCc4ccccc4C3)n2)c1` [Compound 128, 1-(5-((5-chloro-4-(3,4-dihydroisoquinolin-2(1H)-yl)pyrimidin-2-yl)amino)pyridin-3-yl)pyrrolidin-2-one], the half-inhibitory concentration (IC50) was less than 500 nM.
The same measure for `O=C1CCCN1c1cncc(Nc2ncc(Cl)c(N3CCc4ccccc43)n2)c1` [Compound 129, 1-(5-((5-chloro-4-(indolin-1-yl)pyrimidin-2-yl)amino)pyridin-3-yl)pyrrolidin-2-one]: less than 500 nM.
`O=C1CCCN1c1cncc(Nc2ncc(Cl)c(N3Cc4ccccc4C3)n2)c1` [Compound 130, 1-(5-((5-chloro-4-(isoindolin-2-yl)pyrimidin-2-yl)amino)pyridin-3-yl)pyrrolidin-2-one]: the 50% inhibitory concentration (IC50) was less than 500 nM.
`O=C1CCCN1c1cncc(Nc2ncc(Cl)c(N3CCCC(C4CCCC4)C3)n2)c1` (stereo not drawn) [Compound 131, 1-(5-((5-chloro-4-(3-cyclopentylpiperidin-1-yl)pyrimidin-2-yl)amino)pyridin-3-yl)pyrrolidin-2-one]: the half-inhibitory concentration (IC50) is less than 500 nM.
For `CN1CCC2(CC1)CCN(c1cncc(Nc3ncc(Cl)c(-c4cccc(-c5ccccc5)c4)n3)c1)C2=O` [Compound 132, 2-[5-[[5-chloro-4-(3-phenylphenyl)pyrimidin-2-yl]amino]-3-pyridyl]-8-methyl-2,8-diazaspiro[4.5]decan-1-one], the IC50 was less than 500 nM.
As for `CC(=O)N1CCC2(CC1)CCN(c1cncc(Nc3ncc(Cl)c(-c4cccc(-c5ccccc5)c4)n3)c1)C2=O` [Compound 133, 8-acetyl-2-[5-[[5-chloro-4-(3-phenylphenyl)pyrimidin-2-yl]amino]-3-pyridyl]-2,8-diazaspiro[4.5]decan-1-one], the figure is less than 500 nM; as for `O=C1CCCN1c1cncc(Nc2ncc(Cl)c(N3CCOC(c4ccccn4)C3)n2)c1` (stereo not drawn) [Compound 134, 1-[5-[[5-chloro-4-[2-(2-pyridyl)morpholin-4-yl]pyrimidin-2-yl]amino]-3-pyridyl]pyrrolidin-2-one], less than 500 nM; as for `O=C1CCCN1c1cncc(Nc2ncc(Cl)c(C3CCCN(C4CCCC4)C3)n2)c1` (stereo not drawn) [Compound 135, 1-(5-((5-chloro-4-(1-cyclopentylpiperidin-3-yl)pyrimidin-2-yl)amino)pyridin-3-yl)pyrrolidin-2-one], less than 500 nM.
Take `O=C1CCCN1c1cncc(Nc2ncc(Cl)c(N3CCC(C4CCCC4)C3)n2)c1` (stereo not drawn) [Compound 136, 1-(5-((5-chloro-4-(3-cyclopentylpyrrolidin-1-yl)pyrimidin-2-yl)amino)pyridin-3-yl)pyrrolidin-2-one]: the IC50 was less than 500 nM.
`O=C1CCCN1c1cncc(Nc2ncc(Cl)c(-c3cnn(C4CCC4)c3)n2)c1` [Compound 137, 1-(5-((5-chloro-4-(1-cyclobutyl-1H-pyrazol-4-yl)pyrimidin-2-yl)amino)pyridin-3-yl)pyrrolidin-2-one]: the IC50 was less than 500 nM.
As for `O=C1CCCN1c1cncc(Nc2ncc(Cl)c(-c3cnn(C4CCCC4)c3)n2)c1` [Compound 138, 1-[5-[[5-chloro-4-(1-cyclopentylpyrazol-4-yl)pyrimidin-2-yl]amino]-3-pyridyl]pyrrolidin-2-one], the half-inhibitory concentration (IC50) is less than 500 nM.
Regarding `O=C1CCCN1c1cncc(Nc2ncc(Cl)c(-c3cnn(C4CCCCC4)c3)n2)c1` [Compound 139, 1-[5-[[5-chloro-4-(1-cyclohexylpyrazol-4-yl)pyrimidin-2-yl]amino]-3-pyridyl]pyrrolidin-2-one], the half-inhibitory concentration (IC50) is less than 500 nM.
As for `O=C1CCCN1c1cncc(Nc2ncc(Cl)c(-c3cnn(-c4ccccc4)c3)n2)c1` [Compound 140, 1-(5-((5-chloro-4-(1-phenyl-1H-pyrazol-4-yl)pyrimidin-2-yl)amino)pyridin-3-yl)pyrrolidin-2-one], the figure is less than 500 nM; as for `O=C1CCCN1c1cncc(Nc2ncc(Cl)c(C3CCCN(c4ccccc4)C3)n2)c1` (stereo not drawn) [Compound 141, 1-(5-((5-chloro-4-(1-phenylpiperidin-3-yl)pyrimidin-2-yl)amino)pyridin-3-yl)pyrrolidin-2-one], less than 500 nM; as for `O=C1CCCN1c1cncc(Nc2ncc(Cl)c(-c3cccc(Oc4ccccc4)c3)n2)c1` [Compound 142, 1-(5-((5-chloro-4-(3-phenoxyphenyl)pyrimidin-2-yl)amino)pyridin-3-yl)pyrrolidin-2-one], less than 500 nM.
As for `O=C1CCCN1c1cncc(Nc2ncc(Cl)c(-c3ccn(-c4ccccc4)n3)n2)c1` [Compound 143, 1-(5-((5-chloro-4-(1-phenyl-1H-pyrazol-3-yl)pyrimidin-2-yl)amino)pyridin-3-yl)pyrrolidine-2-one], the figure is less than 500 nM; as for `O=C1CCCN1c1cncc(Nc2ncc(Cl)c(-c3ccn(C4CCCC4)n3)n2)c1` [Compound 144, 1-(5-((5-chloro-4-(1-cyclopentyl-1H-pyrazol-3-yl)pyrimidin-2-yl)amino)pyridin-3-yl)pyrrolidin-2-one], less than 500 nM; as for `O=C1CCCN1c1cncc(Nc2ncc(Cl)c(C3CCCN(C4CCC4)C3)n2)c1` (stereo not drawn) [Compound 145, 1-(5-((5-chloro-4-(1-cyclobutylpiperidin-3-yl)pyrimidin-2-yl)amino)pyridin-3-yl)pyrrolidin-2-one], less than 500 nM.
With `O=C(C1CCCC1)N1CCCC(c2nc(Nc3cncc(N4CCCC4=O)c3)ncc2Cl)C1` (stereo not drawn) [Compound 146, 1-(5-((5-chloro-4-(1-(cyclopentanecarbonyl)piperidin-3-yl)pyrimidin-2-yl)amino)pyridin-3-yl)pyrrolidin-2-one], the IC50 is less than 500 nM.
As for `O=C1CCCN1c1ccc(Nc2ncc(F)c(-c3cccc(C4CC4)c3)n2)cn1` [Compound 147, 1-(5-((4-(3-cyclopropylphenyl)-5-fluoropyrimidin-2-yl)amino)pyridin-2-yl)pyrrolidin-2-one], the figure is less than 500 nM.
The same measure for `O=C1CCCN1c1cncc(Nc2ncc(F)c(-c3cnn(C4COC4)c3)n2)c1` [Compound 148, 1-(5-((5-fluoro-4-(1-(oxetan-3-yl)-1H-pyrazol-4-yl)pyrimidin-2-yl)amino)pyridin-3-yl)pyrrolidin-2-one]: less than 500 nM.
On to `O=C1CCCN1c1cncc(Nc2ncc(Cl)c(C3CCCN(C4CC4)C3)n2)c1` (stereo not drawn) [Compound 149, 1-(5-((5-chloro-4-(1-cyclopropylpiperidin-3-yl)pyrimidin-2-yl)amino)pyridin-3-yl)pyrrolidin-2-one], for which the IC50 is less than 500 nM.
`O=C1CCCN1c1ccnc(Nc2ncc(Cl)c(-c3cccc(C4CCCCC4)c3)n2)c1` [Compound 150, 1-(2-((5-chloro-4-(3-cyclohexylphenyl)pyrimidin-2-yl)amino)pyridin-4-yl)pyrrolidin-2-one]: the IC50 is 500 to 1000 nM.
